Experimental data as given in patent US11213527B2, “Inhibitory effect of low molecular weight compound on cancer and fibrosis” (NATIONAL UNIVERSITY CORPORATION TOTTORI UNIVERSITY, priority 2014, dated 2022).

Assays:
[1] = test system: liver cancer cell line HepG2 (EpCAM); experiment: FACS analysis of EpCAM-expressing cells; assay type: cell-based, human; conditions: 0.5 μM 5-FU, 50 μM IC-2, two days, DMSO 76.2%
Experimental: (§1) A liver cancer cell line HepG2 was seeded at 1.5×10^6 cells/dish on 10-cm dishes. Next, the cells were cultured at 37° C. and 5% CO2. After 24 hours, 1% DSMO, 0.5 μM 5-FU, or 50 μM IC-2 was added thereto and the cells were further incubated. Then, the cells were harvested at two days after the chemical treatment. Meanwhile, the cells were blocked in 0.5% BSA/0.5% FBS/2 mM EDTA/PBS. Subsequently, 0.3 μL of an anti-human EpCAM monoclonal antibody (Cell Signaling Technology Inc., Danvers, Mass., USA) was added to 500 μL of a cell suspension and the resulting mixture was resuspended and incubated at 4° C. for 10 min to carry out a primary antibody reaction. After the primary antibody reaction, the cells were washed 3 times with 1 mL of PBS. After 1.0 μg of an Alexa 488-labeled goat anti-mouse IgG antibody (Life Technologies Corp., Carlsbad, Calif., USA) was added, the mixture was resuspended and a secondary antibody reaction was performed in a dark room for 10 min at 4° C. Thereafter, the cells were washed twice with 5% FBS/2 mM EDTA/PBS and once with 5% FBS/2 mM EDTA/DEME. Next, the cells were resuspended in 500 μL of 5% FBS/2 mM EDTA/PBS. Then, 1 μg/mL of propidium iodide was added thereto. After that, the mixture was made to pass through a tube with a 40-μm mesh filter. Finally, a Beckman Coulter-MoFlo XDP was used to analyze EpCAM-expressing cells.

CD44-positive HuH7 cells = experiment: Liver cancer model mice, CD44-positive HuH7 cells subcutaneously transplanted; assay type: in vivo; conditions: for change in the body weight: 50 mg/kg IC-2 or 30 mg/kg 5-FU intraperitoneally every 3 days
Experimental: CD44-positive HuH7 cells were subcutaneously transplanted into mice. The mice were then divided into 3 groups (DMSO group: 5 mice; 5-FU group: 4 mice; and IC-2 group: 4 mice). Subsequently, 30 mg/kg of 5-FU, 50 mg/kg of IC-2, or DMSO (as a control), which was a solvent for each chemical, was intraperitoneally administered every 3 days. The body weight and the tumor length and width of each mouse were measured every 3 days. The tumor volume was calculated by using the following equation: Tumor volume=Length×(Width)^2×0.5. The volume at Day 0 was used to normalize each tumor volume, and then a graph was created. To sufficiently evaluate an effect of 5-FU, the dosage that was usually […] in research articles was doubled to set a 5-FU dose. The IC-2 concentration corresponding to a concentration at which a Wnt/β-catenin signal was inhibited in vitro was calculated. Then, the concentration was doubled to set an IC-2 dose.

[2] = test system: liver cancer cell line HepG2 (CD133); experiment: FACS analysis of CD133-expressing cells; assay type: cell-based, human; conditions: 0.5 μM 5-FU, 50 μM IC-2, two days, DMSO 57.1%
Experimental: as §1, with “50” for “0.3”, “CD133” for “EpCAM”, “(Miltenyi Biotec)” for “(Cell Signaling Technology Inc., Danvers, Mass., USA)”, “CD133-expressing” for “EpCAM-expressing”

[3] = test system: liver cancer cell line HLF (CD90); experiment: FACS analysis of CD90-expressing cells; assay type: cell-based, human; conditions: 0.5 μM 5-FU, 50 μM IC-2, two days, DMSO 21.8%
Experimental: A liver cancer cell line HLF was seeded at 1.5×10^6 cells/dish on 10-cm dishes. Next, the cells were cultured at 37° C. and 5% CO2. After 24 hours, 1% DSMO, 0.5 μM 5-FU, or 50 μM IC-2 was added thereto and the cells were further incubated. Two days after the chemical treatment, the cells were harvested. Then, the cells were blocked in 0.5% BSA/0.5% FBS/2 mM EDTA/PBS. Subsequently, 5 μL of an APC-labeled mouse anti-human CD90 antibody (BD Biosciences, San Jose, Calif., USA) was added to 500 μL of a cell suspension and the resulting mixture was resuspended and incubated at 4° C. for 10 min to carry out a primary antibody reaction. After the antibody reaction, the cells were washed twice with 0.5% FBS/2 mM EDTA/PBS and once with 5% FBS/2 mM EDTA/DMEM. Next, the cells were resuspended in 500 μL of 5% FBS/2 mM EDTA/PBS. Then, 1 μg/mL of propidium iodide was added thereto. After that, the mixture was made to pass through a tube with a 40-μm mesh filter. Finally, a Beckman Coulter-MoFlo XDP was used to analyze CD90-expressing cells. […] The concentration of IC-2 was determined on the basis of a concentration at which a Wnt/β-catenin signal was inhibited.

CD44^high DLD-1 cells = experiment: Inhibitory effect on cancer stem cells in colon cancer (CD44 FACS); assay type: cell-based, human; conditions: IC-2 50 μM, 5-FU 0.5, 5 μM, 48 hours, vs control
Experimental: First, 1×10^6 DLD-1 cells were seeded on a 10-cm dish. After 24 hours, the cells were treated with 5-FU (0.5, 5 μM) or IC-2 (50 μM). After additional 48 hours, the cells were harvested. An anti-human CD44 antibody (Abcam Ltd., Cambridge, UK) was used as a primary antibody and an Alexa 488-labeled goat anti-mouse IgG antibody (Life Technologies Corp., Carlsbad, Calif., USA) was then used. After that, analysis was performed by using a MoFlo XDP (Beckman Coulter Inc., Fullerton, Calif.).

Structure (SMILES) | proportion of the EpCAM-expressing cells [1] [%] | change in the body weight (CD44-positive HuH7 cells) | therapeutic effect of treating a malignant tumor (tumor volume) (CD44-positive HuH7 cells; 50 mg/kg IC-2 vs 30 mg/kg 5-FU intraperitoneally every 3 days) | proportion of the CD133-expressing cells [2] [%] | proportion of the CD90-expressing cells [3] [%] | proportion of CD44^high cells (CD44^high DLD-1 cells)
O=C1[C@H](Cc2ccccc2)N2C(=O)CCN(C(=O)NCc3ccccc3)[C@H]2CN1Cc1cccc2ccccc12 [IC-2] | 51.1 | no observable change in the body weight | significantly higher therapeutic effect of treating a malignant tumor than that of 5-FU | 1.45 | 13.5 | significantly decreased the proportion of CD44^high cells
O=c1[nH]cc(F)c(=O)[nH]1 [5-FU, reference compound] | 81.4 | no observable change in the body weight | – | 33.3 | 24.1 | rather increased the proportion
